How the values were obtained:
[1] = Dog Hepatocyte Stability Assay; assay type: in vitro ADME; conditions: beagle, cryopreserved hepatocytes
Description: (§1) The metabolic stability of Compound 1 was evaluated using cryopreserved hepatocytes from mice, rats, dogs, cynomolgus monkeys, and humans.
(§2) 50 μL of 1 mM intermediate solutions for each test compound was prepared by adding 5 μL of 10 mM stock solution to 45 μL of a 1:1 mixture of water and acetonitrile. A 2 μM working stocks for each test compound were prepared in incubation media, InvitroGRO™ KHB (Bio IVT, Westbury, NY, USA), by adding 2 μL of 1 mM intermediate stock to 998 μL of incubation media.
(§3) To thaw the hepatocytes, InvitroGRO™ HT thawing medium (BioIVT, Westbury, NY, USA) was prewarmed to 37° C., and 48 mL of warmed thawing medium was transferred to a sterile 50 mL conical tube. The hepatocyte vial was removed from the liquid nitrogen Dewar, and gently thawed in a water bath at 37° C. for 1-2 minutes, then the contents of the vial were emptied into a conical tube with prewarmed InvitroGRO HT medium. 1 mL of prewarmed InvitroGRO HT medium was added to each emptied hepatocyte vial to resuspend any remaining cells, and the contents were pipetted into the hepatocyte suspension. The tube containing the hepatocyte suspension was centrifuged at 50*g for 5 minutes. The supernatant was removed carefully, and the remaining pellet was resuspended by adding 1 mL of incubation media, InvitroGRO KHB, and gently shaking until there were no clumps.
(§4) Cell viability was determined using the trypan blue method. 25 μL of hepatocyte cell suspension was added to a trypan blue (TB) solution (containing 775 μL InvitroGRO KHB and 200 μL of Trypan Blue). Cell count was taken using a hemacytometer.
(§5) For mouse hepatocytes, 200 μL of hepatocytes (0.8×10^6 cells/mL) were added to the wells of a 48 well plate (Catalog No. 92048, TPP Techno Plastic Products AG, Trasadingen, Switzerland) and pre-incubated for 30 minutes at 37° C. For rat, dog, monkey, […], 200 μL of hepatocytes (2×10^6 cells/mL) were added to the wells of a 48 well plate (Catalog No. 92048, TPP Techno Plastic Products AG, Trasadingen, Switzerland) and pre-incubated for 30 minutes at 37° C.
(§6) For all species of hepatocytes, once the pre-incubation period was complete, 200 μL of 2 μM working stock of test compound was added to the wells of the plate, and the plate was vortexed on a Vibramax™ 100 (P/N 544-21200-00, Heidolph Instruments GmbH & Co. KG, Schwabach, Germany) at 500 rpm in a 37° C. CO2 incubator (Model No. 51026280, ThermoFisher Scientific, Waltham, MA, USA). At each time point of 0, 15, 30, 60, 90, and 120 minutes, 50 μL of incubation mixture was precipitated with 200 μL of acetonitrile containing internal standard.
(§7) At the end of the experiment, the samples were centrifuged at 4000 rpm for 10 minutes. […]

[2] = system: cryopreserved hepatocytes from beagle dogs; assay: Dog Hepatocyte Stability Assay; assay type: in vitro ADME
Description: as §1, §2, §3, §4, §5, §6, §7

hERG potassium channels = hERG potassium channels (Homo sapiens, UniProt Q12809); assay: cell-based
Description: The effects of Compound 1 on the hERG potassium channels were evaluated using the automated patch clamp method (SyncroPatch® 384PE, Nanion Technologies GmbH, Munich, Germany).
CHO cells stably expressing hERG potassium channels (Sophion Bioscience, Inc. Bedford, MA, USA) were used for this test. The cells were cultured in a humidified and air-controlled (5% CO2) incubator at 37° C. The CHO hERG cell culture medium was 500 mL Ham's F-12 medium (Catalog No. 31765035, Invitrogen, Waltham, MA, USA), 50 mL HyClone™ Fetal Bovine Serum (Catalog No. SV30087.03, Cytiva, Marlborough, MA, USA), 1 mL Geneticin™ (G418 Sulfate, 50 mg/mL)) (Catalog No. 10131027, Invitrogen, Waltham, MA, USA), and 1 mL Hygromycin B (50 mg/mL) (Catalog No. 10687010, Invitrogen, Waltham, MA, USA).
The CHO cells were at least two days after plating and more than 75% confluent were used. Before testing, cells were harvested using TrypLE™ and resuspended in the physiological solution at the room temperature.
The solutions in Table 9 were used for the electrophysiological recordings. The physiological solution and external solution were prepared at least one month prior to the experiment. The intracellular solution was prepared in batches, aliquoted, and stored at 4° C. until use.
The stock solutions were further diluted into external solution to achieve final concentrations for testing. A visual check for precipitation was conducted before testing. Final DMSO concentration in external solution was not more than 0.30% for the test compounds.
The voltage command protocol started from a holding potential of −80 mV. Then, the voltage was first stepped to −50 mV for 80 ms for leak subtraction, and then stepped to +20 mV for 4,800 ms to open hERG channels. After that, the voltage was stepped back down to −50 mV for 5,000 ms, causing a “rebound” or tail current, which was measured and collected for data analysis. Finally, the voltage was stepped back to the holding potential of −80 mV for 1,000 ms. This voltage command protocol was repeated every 20,000 msec, and performed continuously during the test of vehicle control and test compounds.
This SyncroPatch hERG assay was conducted at room temperature. The Setup, Prime Chip, Catch and Seal Cells, Amplifier Settings, Voltage and Application Protocols were established with […] (Nanion Technologies GmbH, Munich, Germany). One addition of 40 μL of vehicle was applied, followed by a baseline period of 300 s. Then 40 μL doses of test compounds were added. The exposure of test compound at each concentration was no less than 300 s. The recording for the whole process passed quality control or the well was abandoned and the compound was retested, all automatically set by PatchControl (Nanion Technologies, Munich, Germany). Five concentrations (0.30 μM, 1.00 μM, 3.00 μM, 10.00 μM and 30.00 μM) were tested for each compound. A minimum of 2 replicates per concentration were obtained.
Data analysis was carried out using DataControl® (Nanion Technologies GmbH, Munich, Germany), EXCEL 2013 (Microsoft Corporation, Redmond, WA, USA) and GraphPad Prism 5.0 (GraphPad Software, LLC, San Diego, CA, USA).
Within each recording well, percent of control values were calculated for each test compound concentration current response based on peak current in presence of reference control (current response/peak current)×100%. The Dose-Response curves were fit to the standard Hill equation as shown below: […]
where X is the logarithm of concentration, Ipost cpd/Ipre cpd is the normalized peak current amplitude, Top is 1, and Bottom is equal to 0. Curve-fitting and IC50 calculations were performed by GraphPad Prism 5.0.

hERG potassium channels, sequence (Q12809 whole entry): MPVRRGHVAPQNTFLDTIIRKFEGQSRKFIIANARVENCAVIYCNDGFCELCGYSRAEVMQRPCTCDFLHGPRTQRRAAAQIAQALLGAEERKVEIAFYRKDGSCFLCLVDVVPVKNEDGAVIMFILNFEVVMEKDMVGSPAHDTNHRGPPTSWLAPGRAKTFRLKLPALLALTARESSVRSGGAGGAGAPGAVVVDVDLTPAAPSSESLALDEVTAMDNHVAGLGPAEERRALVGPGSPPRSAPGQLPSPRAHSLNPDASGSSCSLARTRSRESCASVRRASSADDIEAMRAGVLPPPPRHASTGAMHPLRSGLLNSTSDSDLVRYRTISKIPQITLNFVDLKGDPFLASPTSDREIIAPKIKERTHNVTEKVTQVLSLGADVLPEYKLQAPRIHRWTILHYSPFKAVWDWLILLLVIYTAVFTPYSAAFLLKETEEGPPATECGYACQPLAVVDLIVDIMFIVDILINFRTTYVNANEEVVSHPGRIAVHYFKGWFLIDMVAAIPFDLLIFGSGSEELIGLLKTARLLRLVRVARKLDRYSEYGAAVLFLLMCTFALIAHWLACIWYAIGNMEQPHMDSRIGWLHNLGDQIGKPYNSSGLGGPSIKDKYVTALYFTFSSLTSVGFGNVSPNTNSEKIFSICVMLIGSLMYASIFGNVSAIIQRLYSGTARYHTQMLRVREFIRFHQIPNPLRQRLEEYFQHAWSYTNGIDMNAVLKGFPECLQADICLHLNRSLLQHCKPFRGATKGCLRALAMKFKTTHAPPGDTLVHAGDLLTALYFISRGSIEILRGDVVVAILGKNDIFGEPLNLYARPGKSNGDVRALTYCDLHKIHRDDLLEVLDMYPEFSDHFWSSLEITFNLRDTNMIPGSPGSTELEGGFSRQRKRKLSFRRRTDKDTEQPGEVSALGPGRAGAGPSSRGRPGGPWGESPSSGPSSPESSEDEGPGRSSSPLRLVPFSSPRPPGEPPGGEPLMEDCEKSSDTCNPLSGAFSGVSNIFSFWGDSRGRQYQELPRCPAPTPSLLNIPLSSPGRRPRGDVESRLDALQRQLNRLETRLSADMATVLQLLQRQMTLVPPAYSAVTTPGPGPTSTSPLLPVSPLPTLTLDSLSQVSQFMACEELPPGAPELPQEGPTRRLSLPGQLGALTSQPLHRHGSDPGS

COc1cc(-c2cn(C)c(=O)c(C)c2C)cc(OC)c1CN1CC[C@H](N2CCN(c3ccc(N[C@H]4CCC(=O)NC4=O)cc3F)CC2)C(F)(F)C1 [Compound 1, (S)-3-((4-(4-((S)-1-(2,6-dimethoxy-4-(1,4,5-trimethyl-6-oxo-1,6-dihydropyridin-3-yl)benzyl)-3,3-difluoropiperidin-4-yl)piperazin-1-yl)-3-fluorophenyl)amino)-piperidine-2,6-dione]
half-life at 1 µM [1]: > 2 h
hepatocyte CLint at 1 µM ([1]; read-out: CL int cells): 1.49 µL/min/1e6 cells
CLh int in vivo [2]: 11.48 mL/min/Kg body wt.
CLhb scaled well stirred [2]: 8.6 mL/min/kg body wt.
IC50 (hERG potassium channels): 2910 nM
HillSlope (hERG potassium channels; human): 1.26
POI (%) (hERG potassium channels; human, 0.3 µM): 12.42%
POI (%) (hERG potassium channels; human, 1 µM): 14.61%
POI (%) (hERG potassium channels; human, 3 µM): 22.59%
POI (%) (hERG potassium channels; human, 10 µM): 19.49%
POI (%) (hERG potassium channels; human, 30 µM): 21.92%
